According to US20140235533A1, “DIHYDROFURAN DERIVATIVES AS INSECTICIDAL COMPOUNDS” (SYNGENTA PARTICIPATIONS AG, priority 2011, published 2014):

Legend:
Assay type in all cases: in vivo
[1] = tested on: Diabrotica balteata; experiment: Diabrotica balteata (corn root worm) artificial diet MTP test; conditions: 120 h, 200 ppm (concentration in well 18 ppm), L2 larvae, larval mortality and growth regulation after 5 days
Procedure: Diabrotica balteata (Corn Root Worm): A 24-well microtiter plate (MTP) with artificial diet was treated with test solutions at an application rate of 200 ppm (concentration in well 18 ppm) by pipetting. After drying, the MTPs were infested with L2 larvae (6-10 per well). After an incubation period of 5 days, samples were checked for larval mortality and growth regulation.

[2] = tested on: Heliothis virescens; experiment: Heliothis virescens (tobacco budworm) egg test on artificial diet; conditions: 96 h, 200 ppm (concentration in well 18 ppm), eggs 0-24 h old on artificial diet, egg mortality, larval mortality, growth regulation after 4 days
Procedure: Heliothis virescens (Tobacco Budworm):
Eggs (0-24 h old) were placed in 24-well microtiter plate on artificial diet and treated with test solutions at an application rate of 200 ppm (concentration in well 18 ppm) by pipetting. After an incubation period of 4 days, samples were checked for egg mortality, larval mortality, and growth regulation. The following compound gave at least 80% control of Heliothis virescens: A1, A2, A03, A05, A06, A07, A08, A09, A10, A11, A12, A13, A14, A15, A16, A17, A18, A19, A20, A21, A22, A25, A26, A27, A31, A32, A34, A37, A39, A40, A42, A44, A45, A46, A47, A48, A49, A50, A51, A52, A53, B1**.

[3] = tested on: Plutella xylostella; experiment: Plutella xylostella (diamond back moth) artificial diet MTP test; conditions: 144 h, 200 ppm (concentration in well 18 ppm), L2 larvae, larval mortality and growth regulation after 6 days
Procedure: Plutella xylostella (Diamond Back Moth): 24-well microtiter plate (MTP) with artificial diet was treated with test solutions at an application rate of 200 ppm (concentration in well 18 ppm) by pipetting. After drying, the MTPs were infested with L2 larvae (7-12 per well). After an incubation period of 6 days, samples were checked for larval mortality and growth regulation.

[4] = tested on: Spodoptera littoralis; experiment: Spodoptera littoralis (Egyptian cotton leafworm) cotton leaf disc spray test; conditions: foliar, 72 h, 200 ppm spray on cotton leaf discs, 5 L1 larvae, mortality, feeding behavior, growth regulation 3 days after treatment
Excerpt: Spodoptera littoralis (Egyptian Cotton Leafworm) Cotton leaf discs were placed on agar in a 24-well microtiter plate and sprayed with test solutions at an application rate of 200 ppm. After drying, the leaf discs were infested with 5 L1 larvae. The samples were checked for mortality, feeding behavior, and growth regulation 3 days after treatment (DAT).

[5] = tested on: Tetranychus urticae; experiment: Tetranychus urticae (two-spotted spider mite) bean leaf disc spray test; conditions: foliar, 192 h, 200 ppm spray on bean leaf discs, mite populations of mixed ages, egg, larval and adult mortality 8 days later
Excerpt: Tetranychus urticae (Two-Spotted Spider Mite): Bean leaf discs on agar in 24-well microtiter plates were sprayed with test solutions at an application rate of 200 ppm. After drying, the leaf discs are infested with mite populations of mixed ages. 8 days later, discs are checked for egg mortality, larval mortality, and adult mortality.

Measured: pest or weed control at 200 ppm

C[C@H](NC(=O)C1CC1)c1ccc(C2=COC(c3cc(Cl)c(Cl)c(Cl)c3)(C(F)(F)F)C2)cc1 (stereo partly drawn) [B1*, N-[(1S)-1-[4-[2-(3,4,5-trichlorophenyl)-2-(trifluoromethyl)-3H-furan-4-yl]phenyl]ethyl]cyclopropanecarboxamide]
≥ 80%: all assays above

CC(C)C(=O)NCc1ccc(C2=COC(c3cc(Cl)cc(Cl)c3)(C(F)(F)F)C2)cc1Cl (stereo not shown) [Compound A46, N-[[2-chloro-4-[2-(3,5-dichlorophenyl)-2-(trifluoromethyl)-3H-furan-4-yl]phenyl]methyl]-2-methyl-propanamide]
≥ 80%: all assays above

O=C(CC(F)(F)F)NCc1ccc(C2=COC(c3cc(Cl)cc(Cl)c3)(C(F)(F)F)C2)cc1Cl (stereo not shown) [Compound A48, N-[[2-chloro-4-[2-(3,5-dichlorophenyl)-2-(trifluoromethyl)-3H-furan-4-yl]phenyl]methyl]-3,3,3-trifluoro-propanamide]
≥ 80%: all assays above

CS(=O)(=O)CC(=O)NCc1ccc(C2=COC(c3cc(Cl)cc(Cl)c3)(C(F)(F)F)C2)cc1Cl (stereo not shown) [Compound A51, N-[[2-chloro-4-[2-(3,5-dichlorophenyl)-2-(trifluoromethyl)-3H-furan-4-yl]phenyl]methyl]-2-methylsulfonyl-acetamide]
≥ 80%: all assays above

CCC(CC)C(=O)NCc1ccc(C2=COC(c3cc(Cl)cc(Cl)c3)(C(F)(F)F)C2)cc1Cl (stereo not shown) [Compound A03, N-[[2-chloro-4-[2-(3,5-dichlorophenyl)-2-(trifluoromethyl)-3H-furan-4-yl]phenyl]methyl]-2-ethyl-butanamide]
≥ 80%: all assays above

O=C(NCc1ccc(C2=COC(c3cc(Cl)cc(Cl)c3)(C(F)(F)F)C2)cc1Cl)C1CC1 (stereo not shown) [Compound A2, N-[[2-chloro-4-[2-(3,5-dichlorophenyl)-2-(trifluoromethyl)-3H-furan-4-yl]phenyl]methyl]cyclopropanecarboxamide]
≥ 80%: all assays above

CCC(=O)NCc1ccc(C2=COC(c3cc(Cl)cc(Cl)c3)(C(F)(F)F)C2)cc1Cl (stereo not shown) [Compound A05, N-[[2-chloro-4-[2-(3,5-dichlorophenyl)-2-(trifluoromethyl)-3H-furan-4-yl]phenyl]methyl]propanamide]
≥ 80%: all assays above

C/N=C1/SC(CC(=O)NCc2ccc(C3=COC(c4cc(Cl)cc(Cl)c4)(C(F)(F)F)C3)cc2Cl)C(=O)N1C (stereo not shown) [Compound A15, N-[[2-chloro-4-[2-(3,5-dichlorophenyl)-2-(trifluoromethyl)-3H-furan-4-yl]phenyl]methyl]-2-[(2E)-3-methyl-2-methylimino-4-oxo-thiazolidin-5-yl]acetamide]
≥ 80%: all assays above
